In PubChem BioAssay (NCI):
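Method: 48-hour compound exposure of cells in 96-well plates, five concentrations, linear interpolation of endpoints. TGI is the concentration that stops growth completely.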

How the values were obtained:
Experiment in all cases: NCI anticancer screen, dose series, 48 h
DMS 114 small cell lung = system: DMS 114 small cell lung
HOP-62 NSCLC = system: HOP-62 NSCLC
HOP-92 NSCLC = system: HOP-92 NSCLC
HCT-116 colon = system: HCT-116 colon
SK-OV-3 ovarian = system: SK-OV-3 ovarian
UO-31 renal = system: UO-31 renal
K-562 leukemia = system: K-562 leukemia
ACHN renal = system: ACHN renal
NCI-H522 lung = system: NCI-H522 lung
KM20L2 colon = system: KM20L2 colon
A549 NSCLC = system: A549 NSCLC
LOX IMVI melanoma = system: LOX IMVI melanoma
NCI-H460 lung = system: NCI-H460 lung
HCC-2998 colon = system: HCC-2998 colon
SN12C renal = system: SN12C renal
COLO 205 colon = system: COLO 205 colon
NCI-H23 lung = system: NCI-H23 lung
M14 melanoma = system: M14 melanoma
786-0 renal = system: 786-0 renal
OVCAR-4 ovarian = system: OVCAR-4 ovarian
UACC-62 melanoma = system: UACC-62 melanoma
TK-10 renal = system: TK-10 renal
U251 CNS = system: U251 CNS
SF-268 CNS = system: SF-268 CNS
HT29 colon = system: HT29 colon
SK-MEL-5 melanoma = system: SK-MEL-5 melanoma
NCI-H226 lung = system: NCI-H226 lung
EKVX NSCLC = system: EKVX NSCLC
HOP-18 NSCLC = system: HOP-18 NSCLC
SNB-19 CNS = system: SNB-19 CNS
SW-620 colon = system: SW-620 colon
SNB-78 CNS = system: SNB-78 CNS
XF 498 CNS = system: XF 498 CNS
SF-539 CNS = system: SF-539 CNS
OVCAR-3 ovarian = system: OVCAR-3 ovarian
CCRF-CEM leukemia = system: CCRF-CEM leukemia
MOLT-4 leukemia = system: MOLT-4 leukemia
A498 renal = system: A498 renal
LXFL 529 NSCLC = system: LXFL 529 NSCLC
OVCAR-8 ovarian = system: OVCAR-8 ovarian
SK-MEL-28 melanoma = system: SK-MEL-28 melanoma
HCT-15 colon = system: HCT-15 colon
M19-MEL melanoma = system: M19-MEL melanoma
SK-MEL-2 melanoma = system: SK-MEL-2 melanoma
SF-295 CNS = system: SF-295 CNS
MALME-3M melanoma = system: MALME-3M melanoma
KM12 colon = system: KM12 colon
OVCAR-5 ovarian = system: OVCAR-5 ovarian
UACC-257 melanoma = system: UACC-257 melanoma
DLD-1 colon = system: DLD-1 colon
RXF 393 renal = system: RXF 393 renal
SNB-75 CNS = system: SNB-75 CNS
CAKI-1 renal = system: CAKI-1 renal
SR leukemia = system: SR leukemia
IGROV1 ovarian = system: IGROV1 ovarian
HL-60(TB) leukemia = system: HL-60(TB) leukemia
DMS 273 small cell lung = system: DMS 273 small cell lung
RPMI-8226 leukemia = system: RPMI-8226 leukemia

Measured: TGI

C/C(=N\OCC(O)CNC(C)C)c1ccc2c(c1)NC(=O)CS2 (stereo not given)
> 100 µM: DMS 114 small cell lung | HOP-62 NSCLC | HOP-92 NSCLC | HCT-116 colon | SK-OV-3 ovarian | UO-31 renal | K-562 leukemia | ACHN renal | NCI-H522 lung | KM20L2 colon | A549 NSCLC | LOX IMVI melanoma | NCI-H460 lung | HCC-2998 colon | SN12C renal | COLO 205 colon | NCI-H23 lung | M14 melanoma | 786-0 renal | OVCAR-4 ovarian | UACC-62 melanoma | TK-10 renal | U251 CNS | SF-268 CNS | HT29 colon | SK-MEL-5 melanoma | NCI-H226 lung | EKVX NSCLC | HOP-18 NSCLC | SNB-19 CNS | SW-620 colon | SNB-78 CNS | XF 498 CNS | SF-539 CNS | OVCAR-3 ovarian | CCRF-CEM leukemia | MOLT-4 leukemia | A498 renal | LXFL 529 NSCLC | OVCAR-8 ovarian | SK-MEL-28 melanoma | HCT-15 colon | M19-MEL melanoma | SK-MEL-2 melanoma | SF-295 CNS | MALME-3M melanoma | KM12 colon | OVCAR-5 ovarian | UACC-257 melanoma | DLD-1 colon | RXF 393 renal | SNB-75 CNS

COc1nc2c(nc(N)n2C2OC(CO)C(O)C(O)C2O)c(=O)[nH]1 (stereo not given)
> 100 µM: HOP-62 NSCLC | CAKI-1 renal | HOP-92 NSCLC | HCT-116 colon | SK-OV-3 ovarian | UO-31 renal | K-562 leukemia | ACHN renal | NCI-H522 lung | KM20L2 colon | A549 NSCLC | LOX IMVI melanoma | NCI-H460 lung | HCC-2998 colon | SN12C renal | COLO 205 colon | NCI-H23 lung | SR leukemia | M14 melanoma | 786-0 renal | OVCAR-4 ovarian | UACC-62 melanoma | TK-10 renal | U251 CNS | SF-268 CNS | HT29 colon | SK-MEL-5 melanoma | NCI-H226 lung | EKVX NSCLC | HOP-18 NSCLC | SNB-19 CNS | SW-620 colon | SNB-78 CNS | XF 498 CNS | SF-539 CNS | OVCAR-3 ovarian | CCRF-CEM leukemia | A498 renal | LXFL 529 NSCLC | OVCAR-8 ovarian | SK-MEL-28 melanoma | IGROV1 ovarian | HL-60(TB) leukemia | M19-MEL melanoma | SF-295 CNS | MALME-3M melanoma | KM12 colon | UACC-257 melanoma | DLD-1 colon | RXF 393 renal | SNB-75 CNS

CC(=O)OC(C[C@H](C)[C@@H]1CC[C@]2(C)C3=CCC4C(C)(C)C(=O)CC[C@]4(C)C3CCC12C)C1OC1(C)C (stereo not given in full)
42.7 µM: HOP-62 NSCLC | HT29 colon
94.1 µM: HCT-116 colon
43.2 µM: 786-0 renal
83.2 µM: SF-268 CNS
47.4 µM: KM12 colon
89.2 µM: MALME-3M melanoma
25.8 µM: UO-31 renal
86.4 µM: NCI-H23 lung
25.7 µM: SK-OV-3 ovarian
55.4 µM: M14 melanoma
31.7 µM: A498 renal
48.3 µM: COLO 205 colon
43.8 µM: XF 498 CNS
> 100 µM: DMS 114 small cell lung | K-562 leukemia | KM20L2 colon | A549 NSCLC | LOX IMVI melanoma | RPMI-8226 leukemia | OVCAR-4 ovarian | UACC-62 melanoma | EKVX NSCLC | HOP-18 NSCLC | SNB-19 CNS | SW-620 colon | SF-539 CNS | OVCAR-3 ovarian | CCRF-CEM leukemia | MOLT-4 leukemia | LXFL 529 NSCLC | OVCAR-8 ovarian | HCT-15 colon | IGROV1 ovarian | M19-MEL melanoma | SK-MEL-2 melanoma | SF-295 CNS | DLD-1 colon
29.5 µM: HL-60(TB) leukemia
77.6 µM: DMS 273 small cell lung
66.8 µM: U251 CNS
24.3 µM: HOP-92 NSCLC
29 µM: NCI-H226 lung
36.5 µM: NCI-H522 lung
88.2 µM: SK-MEL-28 melanoma
75.1 µM: UACC-257 melanoma
31.9 µM: ACHN renal
31.8 µM: OVCAR-5 ovarian
35.4 µM: TK-10 renal
28.6 µM: RXF 393 renal
30.7 µM: HCC-2998 colon

O=C(O)CNS(=O)(=O)c1ccc(NC(=O)c2ccccc2[N+](=O)[O-])cc1
> 100 µM: CAKI-1 renal | HOP-92 NSCLC | SK-OV-3 ovarian | UO-31 renal | K-562 leukemia | ACHN renal | NCI-H522 lung | DMS 273 small cell lung | KM20L2 colon | A549 NSCLC | LOX IMVI melanoma | NCI-H460 lung | SN12C renal | COLO 205 colon | NCI-H23 lung | RPMI-8226 leukemia | M14 melanoma | 786-0 renal | OVCAR-4 ovarian | UACC-62 melanoma | TK-10 renal | U251 CNS | SF-268 CNS | HT29 colon | SK-MEL-5 melanoma | EKVX NSCLC | HOP-18 NSCLC | SNB-19 CNS | SW-620 colon | XF 498 CNS | SF-539 CNS | CCRF-CEM leukemia | MOLT-4 leukemia | A498 renal | LXFL 529 NSCLC | OVCAR-8 ovarian | SK-MEL-28 melanoma | HCT-15 colon | IGROV1 ovarian | HL-60(TB) leukemia | M19-MEL melanoma | SK-MEL-2 melanoma | MALME-3M melanoma | OVCAR-5 ovarian | UACC-257 melanoma | DLD-1 colon | RXF 393 renal | SNB-75 CNS

C[C@@H](CC(O)C1OC1(C)C)[C@@H]1CC[C@]2(C)C3=CCC4C(C)(C)C(O)CC[C@]4(C)C3CCC12C (stereo not given in full)
85.4 µM: SF-268 CNS
41.9 µM: HOP-92 NSCLC | SK-MEL-28 melanoma
75.4 µM: NCI-H23 lung
32.6 µM: NCI-H522 lung
> 100 µM: HOP-62 NSCLC | LOX IMVI melanoma | NCI-H460 lung | HCC-2998 colon | SN12C renal | RPMI-8226 leukemia | SR leukemia | OVCAR-4 ovarian | U251 CNS | EKVX NSCLC | SNB-19 CNS | SW-620 colon | OVCAR-3 ovarian | CCRF-CEM leukemia | MOLT-4 leukemia | OVCAR-8 ovarian | HCT-15 colon | IGROV1 ovarian | KM12 colon | OVCAR-5 ovarian | DLD-1 colon
57.4 µM: SK-MEL-2 melanoma
33.6 µM: UACC-62 melanoma
29.2 µM: DMS 273 small cell lung
24.9 µM: HL-60(TB) leukemia
63.5 µM: UO-31 renal
61.6 µM: TK-10 renal
77.3 µM: A498 renal
46.4 µM: XF 498 CNS
41.2 µM: UACC-257 melanoma
48.6 µM: KM20L2 colon
31.1 µM: MALME-3M melanoma
73.1 µM: K-562 leukemia
54.4 µM: SF-539 CNS
45.3 µM: NCI-H226 lung
40.8 µM: SF-295 CNS
88.8 µM: ACHN renal
49.9 µM: M19-MEL melanoma
31.3 µM: HCT-116 colon
24.8 µM: HT29 colon
25.6 µM: LXFL 529 NSCLC
32.9 µM: A549 NSCLC
60.7 µM: COLO 205 colon
33.9 µM: 786-0 renal
42.1 µM: M14 melanoma | RXF 393 renal
58.9 µM: SK-OV-3 ovarian
80.7 µM: HOP-18 NSCLC
